We go through one molecule from publication PMC5707067, “Farnesyl phenolic enantiomers as natural MTH1 inhibitors from Ganoderma sinense” (Oncotarget, 2017).

For assay [1], the system named is human osteosarcoma cells (U2OS). Description: CCK8 cytotoxicity assay, U2OS. As to conditions: Homo sapiens, U2OS; CCK8, 48 h, carcinoma cell line. The class given is cell-based. An excerpt:
(§1) The growth inhibitory effects of the isolated farnesyl phenolic compounds (1–8) against carcinoma cell lines [human osteosarcoma cells (U2OS), human colorectal carcinoma cells (SW620), human ES-2 ovarian carcinoma cells (ES-2)] and normal tissue cell lines [human hepatic cells (Lo2), African green monkey kidney vero cells (Vero)] were further investigated using CCK8 assay method (Table 3).
(§2) Carcinoma cell lines [human osteosarcoma cells (U2OS), human colorectal carcinoma cells (SW620), human ES-2 ovarian carcinoma cells (ES-2)] and normal tissue cell lines [human hepatic cells (Lo2), African green monkey kidney Vero cells (Vero)] The U2OS, SW620, ES-2, Lo2 and Vero were obtained from ATCC (Manassas, VA, USA). The SW620 and Vero cells were cultured in Roswell Park Memorial Institute medium (RPMI), with 10% fetal bovine serum (Hyclone) and 1% penicillin-streptomycin (Sigma). Lo2, U2OS and ES-2 cells were grown in Dulbecco's modified eagle medium (DMEM), with 10% fetal bovine serum (Hyclone) and 1% penicillin-streptomycin (Sigma). All of these cells were cultured at 37°C in a humidified atmosphere with 5% CO2. For CCK8 assay cytotoxicity evaluation of compounds, all cells were separately plated at a density of 1 × 10^4 cells/well in a 96 well plate. Cells were cultivated at 37°C in 5% CO2 atmosphere for 24 h, then medium in the wells was replaced with fresh medium containing compounds which were diluted in 8 dilution steps covering the range from 200 μM to 1.5625 μM. And DMSO was used as negative control. After 48 h incubation, 10 μL of CCK8 solution was added to each well. After 30 min, the optical density (OD) of each well was measured at wavelength of 450 nm on spectrophotometer. Data were corrected for background (no-cell control) and expressed as a percentage of the value for untreated cells. The IC50 values of the isolated compounds were derived from the mean OD values of the triplicate tests versus the drug concentration curves.
(Formazan colour is commonly taken as a measure of viable cells.)

Assay [2] concerns human colorectal carcinoma cells (SW620). Description: CCK8 cytotoxicity assay, SW620. The class given is cell-based. As to conditions: Homo sapiens, SW-620; CCK8, 48 h, carcinoma cell line.
From the text: as §1, §2

Assay [3] relates to human ES-2 ovarian carcinoma cells (ES-2). The assay can be described thus: CCK8 cytotoxicity assay, ES-2. As to conditions: Homo sapiens, Ovarian carcinoma cell; CCK8, 48 h, carcinoma cell line. The class given is cell-based.
From the text: as §1, §2

For another assay, the system named is SW620 cells (53BP1 foci). The assay can be described thus: 53BP1 foci immunofluorescence. The class given is cell-based, human. To be noted: 50 μM, 24 h vs control, P<0.01. The method, then: Meanwhile, MTH1 could prevent the mispairing of bases during replication and transversion mutations. Presumably, its inhibitors could cause DNA damage. P53 binding protein 1 (p53-binding, protein 1, 53BP1) is an important regulatory factor in response to double strand breaks.
Cells which adhered to glass coverslips were treated with DMSO or compounds (50 μM) for 24 h. Then cells were washed with PBS and then fixed with 3% paraformaldehyde in PBS for 20 min […]. Fixed cells were rinsed with PBS and incubated with penetrating agent (0.5% Triton-X-100) in PBS for 5 min. Next, cells were stained with an anti-53BP1 monoclonal antibody (abcam, diluted 1:250). Then the coverslips were rinsed with PBS at least 3 times andincubated with an Alexa Fluor 568 goat anti-rabbit IgG secondary antibody. After PBS rinsing, coverslips were stained with DAPI (sigma). Then the morphology was observed by confocal microscopy (Zeiss, OBSERVER D1/AX10 cam HRC).

Assay [4] has as its system MTH1 siRNA transfected SW620 cells. Description: CCK8 growth assay in MTH1 siRNA transfected cells. The class given is cell-based, human. The method, then:
In order to study whether the cytotoxicity of the farnesyl phenolic compounds was due to the inhibition of MTH1, the expression of endogenous MTH1 was knocked down in cancer cells. SW620 cell lines were transfected with MTH1 siRNA (#1, #2 and #3), [2] while the control was transfected with non-targeting siRNA (NT). The expression levels of MTH1 were measured by Western blot assay (Figure 6A and 6B), both siRNA #2 and #3 knocked down expressions of MTH1 in SW620 cells. The effects of compound 1 on the growth of MTH1 siRNA (#2 and #3) and non-targeting siRNA transfected cells were assessed by CCK8 assay.
Figure 6 The specific binding of compound 1 to the MTH1 protein leads to cell growth inhibition (A, B) Western blot analysis and optical density analysis for the expression of MTH1 for the siRNA transfected cells. MTH1 siRNA #2 and #3 were both knocked down in SW620 cells compared with the non-target siRNA (NT). (C) The effects of compound 1 on the growth of MTH1 siRNA (#2 and #3) and non-targeting siRNA transfected cells were assessed by CCK8 assay. […] (D) The effects of compounds 1 on normal tissue cell lines [human hepatic cells (Lo2), African green monkey kidney vero cells (Vero)]. (E, F) Cellular thermal shift assay (CETSA) confirmed the binding capacity of compound 1 with MTH1 at the cellular level. […]

Assay [5] deals with T1, MTH1 (Homo sapiens, UniProt P36639). The assay can be described thus: Microscale thermophoresis (MST) binding assay. Background: In MST a laser heats a spot of the sample, and binding alters the fluorescence response.
Procedure: Microscale thermophoresis method (MST) was employed to assay the binding affinity between the compounds and MTH1. […] The dissociation constant Kd values were automatically calculated by using the NT Analysis software (Nano Temper Technologies, München, Germany).
Recombinant human MTH1 was labeled with the Monolith NT™ Protein Labeling Kit RED (Cat#L001) according to the supplied labeling protocol [32]. Labelled MTH1 was kept constant at 100 nM, while all samples tested were diluted in a 20 mM HEPES (pH 7.5) and 0.05 (v/v) % Tween-20. Compounds were diluted in 12 dilution steps covering the range from 500 μM to 200 nM. After 10 min incubation at room temperature about 37°C, samples were loaded into Monolith™ standard-treated capillaries and the thermophoresis was measured at 25°C after 30 min incubation on a Monolith NT.115 instrument (NanoTemper Technologies, München, Germany). Laser power was set to 20% using 30 seconds on-time. The LED power was set to 100%. The dissociation constant Kd values were fitted by using the NTAnalysis software (NanoTemper Technologies, München, Germany). The Kd value of the binding was obtained in two ways. The first way was calculated by thermophoresis curve when there was no fluorescent change during the initial fluorescence scanning. The second way was calculated from the initial fluorescence scanning curve when compounds bound in the sites which directly interfered the fluorescence.
The target in assay [6] is T1, MTH1. The assay can be described thus: Enzyme inhibition assay (8-oxo-dGTP hydrolysis, HPLC). The class given is biochemical. On the set-up: hexa-histidine (His6) (N, cleaved yes); made in house; host or cells: E. coli BL21 Star. As to conditions: 8-oxo-dGTP 25 μM, purified MTH1. The method, then:
Microscale thermophoresis method (MST) was employed to assay the binding affinity between the compounds and MTH1. This technology can quantify protein-protein interactions or protein-small molecule interactions with high sensitivity through detecting fluorescent changes of molecules during thermophoresis.
To identify the efficacy of the eight compounds, an enzyme inhibition assay was carried out. […] Then the reaction was stop by the addition of 20 μL ice-cold Na2EDTA (50 mM). The reaction mixture was centrifugated at 15000 rpm at 4°C for 10 min. 20 μL of supernatant was injected on an HPLC column (Ultimate AQ-C18 RP-18e, 250 mm × 4.6 mm × 5 μm), and eluted isolate with 100 mM Na2HPO4-NaOH (pH 5.5)/MeOH 95:5 with flow rate 1 mL/min at column room of 30°C. […] Measurements were done in triplet, and IC50 values were calculated to compare the efficiency of various compounds.

The structures appear in SMILES notation.

Take `CO[C@]1(c2cc(O)cc(O)c2)C=C(CCCC(CO)CC/C=C(\C)COC(=O)/C=C/c2ccc(O)cc2)C(=O)O1` (stereo partly drawn) [Compound 1, (5R)-3-{9-[(E)-coumaroyl]-4-hydroxymethyl-8-methyl-7-nonene}-5-(3,5-dihydroxyphenyl)-5-methoxy-2(5H)-furanone]: the IC50 (commonly the concentration that inhibits the measured activity by half) in assay [1] turned out to be 111 ± 1.29 µM; in assay [2], 45 ± 1.23 µM; in assay [3], 55.5 ± 1.08 µM; against MTH1 [6], 10.9 ± 1.04 µM. The 53BP1 foci formation entry in the assay with SW620 cells (53BP1 foci) is listed as “significantly aggregated”. The “growth inhibition of MTH1 siRNA (#2 and #3) vs non-targeting siRNA transfected cells” value in assay [4] is recorded as “resistant to the growth inhibition”. For the same molecule, the Kd – broadly, the free concentration of one partner at which half of the binding sites on the other are occupied at equilibrium, for simple one-to-one binding – on MTH1 [5] worked out at 4.71 ± 0.686 µM.
